# According to patent US7524861B2, “Process for the preparation of a hydrate of an anthranilic acid derivative” (priority 2002, dated 2009):
# Assay: Dehydration/re-hydration study (weight change over desiccants, then 33-95% RH, KF water content)
# Assay type: physicochemical
# Details: for KF moisture result: dehydration/rehydration sample
# Experimental: The hexahydrate produced in Example 1 was analysed as follows. Four desiccator cabinets were prepared to contain open dishes of the following saturated salt solutions, to achieve the following approximate relative humidities (RH).
# Dehydration of samples was carried out by storing them over silica gel or over P2O5 at reduced pressure (65 mm Hg). All studies were performed at ambient laboratory temperature (15-22° C.).
# During this study, samples were dispensed to pre-equilibrated weighing bottles as in the hygroscopicity study, and were then stored over silica gel without reduced pressure, then over […] under reduced pressure (65 mm Hg) to dehydrate the hydrate. Once a stable weight was achieved over P2O5, samples were re-hydrated by storing them at 33% RH to 95% RH, in parallel with the hygroscopicity study as described above.
# Water contents were measured by coulometric KF (Karl Fischer) titration.
structure (smiles),measurement,setting,value
"COc1cc2c(cc1OC)CN(CCc1ccc(NC(=O)c3cc(OC)c(OC)cc3NC(=O)c3cnc4ccccc4c3)cc1)CC2 [Example 1, Quinoline-3-carboxylic acid (2-{4-[2-(6,7-dimethoxy-3,4-dihydro-1H-isoquinolin-2-yl)-ethyl]-phenylcarbamoyl}-4,5-dimethoxy-phenyl)-amide]",Cumulative % change Dehydration/Rehydration,"75% RH, cumulative time 2441.25 h",1.26%
same,Cumulative % change Dehydration/Rehydration,"75% RH, cumulative time 2482.00 h",1.23%
same,Cumulative % change Dehydration/Rehydration,"75% RH, cumulative time 2577.75 h",1.35%
same,Cumulative % change Dehydration/Rehydration,"75% RH, cumulative time 2609.75 h",1.38%
same,Cumulative % change Dehydration/Rehydration,"75% RH, cumulative time 2681.25 h",1.41%
same,Cumulative % change Dehydration/Rehydration,"75% RH, cumulative time 2770.25 h",1.36%
same,Cumulative % change Dehydration/Rehydration,"75% RH, cumulative time 2817.75 h",1.44%
same,Cumulative % change Dehydration/Rehydration,"95% RH, cumulative time 2825.25 h",2.28%
same,Cumulative % change Dehydration/Rehydration,"95% RH, cumulative time 2841.75 h",2.73%
same,Cumulative % change Dehydration/Rehydration,"95% RH, cumulative time 2915.75 h",3.06%
same,Cumulative % change Dehydration/Rehydration,"95% RH, cumulative time 2937.75 h",3.21%
same,Cumulative % change Dehydration/Rehydration,"95% RH, cumulative time 2991.25 h",3.25%
same,Cumulative % change Dehydration/Rehydration,"95% RH, cumulative time 3082.25 h",3.86%
same,Cumulative % change Dehydration/Rehydration,"95% RH, cumulative time 3130.00 h",4.12%
same,Cumulative % change Dehydration/Rehydration,"95% RH, cumulative time 3182.25 h",3.99%
same,Cumulative % change Dehydration/Rehydration,"95% RH, cumulative time 3252.25 h",4.19%
same,Cumulative % change Dehydration/Rehydration,"95% RH, cumulative time 3350.25 h",4.22%
same,Cumulative % change Dehydration/Rehydration,"95% RH, cumulative time 3422.25 h",4.35%
same,Cumulative % change Dehydration/Rehydration,"95% RH, cumulative time 3636.25 h",5.31%
same,Cumulative % change Dehydration/Rehydration,"95% RH, cumulative time 4332.75 h",5.58%
same,Cumulative % change Dehydration/Rehydration,"P2O5 with vacuum, cumulative time 425.00 h",−10.85%
same,Cumulative % change Dehydration/Rehydration,"P2O5 with vacuum, cumulative time 452.00 h",−11.00%
same,Cumulative % change Dehydration/Rehydration,"P2O5 with vacuum, cumulative time 476.75 h",−11.19%
same,Cumulative % change Dehydration/Rehydration,"P2O5 with vacuum, cumulative time 570.25 h",−11.43%
same,Cumulative % change Dehydration/Rehydration,"P2O5 with vacuum, cumulative time 641.00 h",−11.35%
same,Cumulative % change Dehydration/Rehydration,"P2O5 with vacuum, cumulative time 760.50 h",−11.51%
same,Cumulative % change Dehydration/Rehydration,"P2O5 with vacuum, cumulative time 904.25 h",−11.46%
same,Cumulative % change Dehydration/Rehydration,"P2O5 with vacuum, cumulative time 1071.00 h",−11.54%
same,Cumulative % change Dehydration/Rehydration,"P2O5 with vacuum, cumulative time 1144.00 h",−11.48%
same,initial water content of the sample,before dehydration,12.5%
same,notional water content after dehydration and re-hydration at 33% RH,corresponding to the net weight change,about 11.5%
same,net weight change after dehydration and re-hydration at 33% RH,dehydrated then re-hydrated at 33% RH,about −1%
same,final weight change on dehydration,dehydration over increasing desiccating conditions,−11.5%
same,KF moisture result,"95% RH, cumulative time 4332.75 h (end)",(15.81) % w/w
same,KF moisture result,"printed in first 33% RH row (1147.25 h), after dehydration over P2O5",(3.82) % w/w
same,KF moisture result,"printed in first row (silica, no vacuum, 3.00 h), initial value before dehydration",(12.53) % w/w
same,Cumulative % change Dehydration/Rehydration,"re-hydration at 33% RH, cumulative time 1147.25 h",−6.61%
same,Cumulative % change Dehydration/Rehydration,"re-hydration at 33% RH, cumulative time 1150.75 h",−4.80%
same,Cumulative % change Dehydration/Rehydration,"re-hydration at 33% RH, cumulative time 1168.00 h",−2.47%
same,Cumulative % change Dehydration/Rehydration,"re-hydration at 33% RH, cumulative time 1240.75 h",−0.68%
same,Cumulative % change Dehydration/Rehydration,"re-hydration at 33% RH, cumulative time 1268.50 h",−0.62%
same,Cumulative % change Dehydration/Rehydration,"re-hydration at 33% RH, cumulative time 1312.50 h",−0.62%
same,Cumulative % change Dehydration/Rehydration,"re-hydration at 33% RH, cumulative time 1431.25 h",−0.83%
same,Cumulative % change Dehydration/Rehydration,"re-hydration at 33% RH, cumulative time 1502.25 h",−0.66%
same,Cumulative % change Dehydration/Rehydration,"re-hydration at 33% RH, cumulative time 1672.50 h",−0.91%
same,Cumulative % change Dehydration/Rehydration,"re-hydration at 33% RH, cumulative time 1741.50 h",−0.97%
same,Cumulative % change Dehydration/Rehydration,"silica, no vacuum, cumulative time 3.00 h",−2.29%
same,Cumulative % change Dehydration/Rehydration,"silica, no vacuum, cumulative time 8.50 h",−3.58%
same,Cumulative % change Dehydration/Rehydration,"silica, no vacuum, cumulative time 24.50 h",−5.92%
same,Cumulative % change Dehydration/Rehydration,"silica, no vacuum, cumulative time 30.50 h",−6.39%
same,Cumulative % change Dehydration/Rehydration,"silica, no vacuum, cumulative time 56.00 h",−8.06%
same,Cumulative % change Dehydration/Rehydration,"silica, no vacuum, cumulative time 80.00 h",−8.50%
same,Cumulative % change Dehydration/Rehydration,"silica, no vacuum, cumulative time 237.50 h",−8.96%
same,Cumulative % change Dehydration/Rehydration,"silica, no vacuum, cumulative time 288.50 h",−9.07%
same,Cumulative % change Dehydration/Rehydration,"silica, with vacuum, cumulative time 308.00 h",−9.07%
same,Cumulative % change Dehydration/Rehydration,"silica, with vacuum, cumulative time 401.00 h",−8.76%
